Laboratory results published in patent US12350270B2, “Antimalarial agents” (Merck Sharp & Dohme LLC, priority 2019, dated 2025).

system: parasites (ring stage, in human red blood cell culture); experiment: Parasite LDH growth assay (antiparasite potency, Parasite Assay); assay type: cell-based, Plasmodium falciparum; conditions: 0.7% rings, 2% haematocrit, 72 hours at 37° C., LDH readout of parasite growth
In short: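 Growth was read by an LDH assay after a freeze–thaw cycle (−80 °C overnight, 4 h thaw at RT). Before that, parasites grew with compound for 72 h at 37 °C under gassed, humidified conditions. The input was a ring-stage culture adjusted to 0.7% parasitemia and 2% haematocrit in serum (5%)/albumax (0.5%)-supplemented RPMI-Hepes.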

SMILES	EC50
CCC1(CC)CC(=O)N([C@@H]2CCS(=O)(=O)c3ccc(C(=O)N[C@H]4CC(C)(C)Oc5ccccc54)cc32)C(=N)N1 [Example 289, (4R)-4-(4,4-diethyl-2-imino-6-oxo-hexahydropyrimidin-1-yl)-N-[(4S)-2,2-dimethylchroman-4-yl]-1,1-dioxo-3,4-dihydro-2H-thiochromane-6-carboxamide]	0.6 nM

same assay, conditions: Plasmodium falciparum, Erythrocyte, 72 h, 0.7% rings, 2% haematocrit, 72 hours at 37° C., LDH readout of parasite growth

SMILES	EC50
CCC1(CC)CC(=O)N([C@H]2c3cc(C(=O)N[C@@H]4c5ccccc5OC[C@@]4(C)O)ccc3O[C@]2(C)COC)C(=N)N1 [Example 279, (2S,3S)-3-(4,4-diethyl-2-imino-6-oxo-hexahydropyrimidin-1-yl)-N-[(3S,4R)-3-hydroxy-3-methyl-chroman-4-yl]-2-(methoxymethyl)-2-methyl-3H-benzofuran-5-carboxamide]	31.4 nM
CCC1(CC)CC(=O)N([C@H]2c3cc(C(=O)N[C@@H]4c5ccccc5OC[C@@]4(C)O)ccc3O[C@@]2(C)COC)C(=N)N1 [Example 281, (2R,3S)-3-(4,4-diethyl-2-imino-6-oxo-hexahydropyrimidin-1-yl)-N-[(3S,4R)-3-hydroxy-3-methyl-chroman-4-yl]-2-(methoxymethyl)-2-methyl-3H-benzofuran-5-carboxamide]	1.1 nM
CCC1(CC)CC(=O)N([C@@H]2C[C@@H](COC)Oc3ccc(C(=O)N[C@@H]4c5ccccc5OC[C@@]4(C)O)cc32)C(=N)N1 [Example 283, (2S,4R)-4-(4,4-diethyl-2-imino-6-oxo-hexahydropyrimidin-1-yl)-N-[(3S,4R)-3-hydroxy-3-methyl-chroman-4-yl]-2-(methoxymethyl)chromane-6-carboxamide]	2.6 nM
CC[C@]1(C)CC(=O)N(C2c3cc(C(=O)N[C@@H]4c5ccccc5OC(C)(C)[C@H]4O)ccc3OCC2(C)OC)C(=N)N1 (stereo partly drawn) [Example 284, 4-[(4R)-4-ethyl-2-imino-4-methyl-6-oxo-hexahydropyrimidin-1-yl]-N-[(3S,4R)-3-hydroxy-2,2-dimethyl-chroman-4-yl]-3-methoxy-3-methyl-chromane-6-carboxamide]	8.5 nM
CCC1(CC)CC(=O)N(C2c3cc(C(=O)N[C@@H]4c5ccccc5C[C@H]4O)ccc3OC2(COC)COC)C(=N)N1 (stereo partly drawn) [Example 285, 3-(4,4-diethyl-2-imino-6-oxo-hexahydropyrimidin-1-yl)-N-[(1R,2R)-2-hydroxyindan-1-yl]-2,2-bis(methoxymethyl)-3H-benzofuran-5-carboxamide]	35.5 nM
CCC1(CC)CC(=O)N([C@@H]2c3cc(C(=O)N[C@@H]4c5ccccc5OC[C@@]4(C)O)ccc3OC[C@@H]2COC)C(=N)N1 [Example 286, (3S,4S)-4-(4,4-diethyl-2-imino-6-oxo-hexahydropyrimidin-1-yl)-N-[(3S,4R)-3-hydroxy-3-methyl-chroman-4-yl]-3-(methoxymethyl)chromane-6-carboxamide]	240 nM
CCC1(CC)CC(=O)N([C@H]2c3cc(C(=O)N[C@@H]4c5ccccc5OC[C@@]4(C)O)ccc3OC[C@H]2COC)C(=N)N1 [Example 287, (3R,4R)-4-(4,4-diethyl-2-imino-6-oxo-hexahydropyrimidin-1-yl)-N-[(3S,4R)-3-hydroxy-3-methyl-chroman-4-yl]-3-(methoxymethyl)chromane-6-carboxamide]	1.9 nM
CCC1(CC)CC(=O)N([C@H]2c3cc(C(=O)N[C@@H]4c5ccccc5OC[C@@]4(C)O)ccc3OC[C@@H]2COC)C(=N)N1 [Example 288, (3S,4R)-4-(4,4-diethyl-2-imino-6-oxo-hexahydropyrimidin-1-yl)-N-[(3S,4R)-3-hydroxy-3-methyl-chroman-4-yl]-3-(methoxymethyl)chromane-6-carboxamide]	1.8 nM
CCC1(CC)CC(=O)N([C@H]2c3cc(C(=O)N[C@@H]4c5ccccc5C(F)(F)[C@H]4O)ccc3O[C@@]2(C)COC)C(=N)N1 [Example 290, (2R,3S)-3-(4,4-diethyl-2-imino-6-oxo-hexahydropyrimidin-1-yl)-N-[(1R,2S)-3,3-difluoro-2-hydroxy-indan-1-yl]-2-(methoxymethyl)-2-methyl-3H-benzofuran-5-carboxamide]	0.3 nM
CCC1(CC)CC(=O)N(C2CC(C(=O)N(C)C)Oc3ccc(C(=O)N[C@@H]4c5ccccc5C[C@@]4(C)O)cc32)C(=N)N1 (stereo partly drawn) [Example 292, 4-(4,4-diethyl-2-imino-6-oxo-hexahydropyrimidin-1-yl)-N6-[(1R,2R)-2-hydroxy-2-methyl-indan-1-yl]-N2,N2-dimethyl-chromane-2,6-dicarboxamide]	49.7 nM
CC1(C)CC(=O)N([C@@H]2CCS(=O)(=O)c3ccc(C(=O)N[C@H]4C[C@H](C(F)(F)F)Oc5ccccc54)cc32)C(=N)N1 [Example 293, (4R)-4-(2-imino-4,4-dimethyl-6-oxo-hexahydropyrimidin-1-yl)-1,1-dioxo-N-[(2R,4S)-2-(trifluoromethyl)chroman-4-yl]-3,4-dihydro-2H-thiochromene-6-carboxamide]	2.8 nM
CC1(C)CC(=O)N([C@H]2CCS(=O)(=O)c3ccc(C(=O)N[C@H]4C[C@H](C(F)(F)F)Oc5ccccc54)cc32)C(=N)N1 [Example 294, (4S)-4-(2-imino-4,4-dimethyl-6-oxo-hexahydropyrimidin-1-yl)-1,1-dioxo-N-[(2R,4S)-2-(trifluoromethyl)chroman-4-yl]-3,4-dihydro-2H-thiochromene-6-carboxamide]	259 nM
CCC1(CC)CC(=O)N([C@@H]2c3cc(C(=O)N[C@@H]4c5ccccc5OC(C)(C)[C@H]4O)ccc3OC[C@@]2(C)OC)C(=N)N1 [Example 295, (3S,4R)-4-(4,4-diethyl-2-imino-6-oxo-hexahydropyrimidin-1-yl)-N-[(3S,4R)-3-hydroxy-2,2-dimethyl-chroman-4-yl]-3-methoxy-3-methyl-chromane-6-carboxamide]	100 nM
CCC1(CC)CC(=O)N([C@H]2c3cc(C(=O)N[C@@H]4c5ccccc5OC(C)(C)[C@H]4O)ccc3OC[C@]2(C)OC)C(=N)N1 [Example 296, (3R,4S)-4-(4,4-diethyl-2-imino-6-oxo-hexahydropyrimidin-1-yl)-N-[(3S,4R)-3-hydroxy-2,2-dimethyl-chroman-4-yl]-3-methoxy-3-methyl-chromane-6-carboxamide]	0.3 nM
CCC1(CC)CC(=O)N(C2c3cc(C(=O)N[C@@H]4c5ccccc5C[C@@]4(C)O)ccc3OC2(COC)COC)C(=N)N1 (stereo partly drawn) [Example 297, 3-(4,4-diethyl-2-imino-6-oxo-hexahydropyrimidin-1-yl)-N-[(1R,2R)-2-hydroxy-2-methyl-indan-1-yl]-2,2-bis(methoxymethyl)-3H-benzofuran-5-carboxamide]	241 nM
CCC1(CC)CC(=O)N([C@H]2c3cc(C(=O)N[C@@H]4c5ccccc5OC(C)(C)[C@H]4O)ccc3OC[C@H]2COC)C(=N)N1 [Example 298, (3R,4R)-4-(4,4-diethyl-2-imino-6-oxotetrahydropyrimidin-1(2H)-yl)-N-((3S,4R)-3-hydroxy-2,2-dimethylchroman-4-yl)-3-(methoxymethyl)chromane-6-carboxamide]	0.5 nM
CCC1(CC)CC(=O)N([C@H]2c3cc(C(=O)N[C@@H]4c5ccccc5OC(C)(C)[C@H]4O)ccc3OC[C@@H]2COC)C(=N)N1 [Example 299, (3S,4R)-4-(4,4-diethyl-2-imino-6-oxo-hexahydropyrimidin-l-yl)-N-[(3S,4R)-3-hydroxy-2,2-dimethyl-chroman-4-yl]-3-(methoxymethyl)chromane-6-carboxamide]	0.8 nM
CC[C@]1(C)CC(=O)N([C@@H]2C[C@@H](COC(F)F)Oc3ccc(C(=O)N[C@@H]4c5ccccc5OC[C@@]4(C)O)cc32)C(=N)N1 [Example 300, (2S,4R)-2-(difluoromethoxymethyl)-4-[(4R)-4-ethyl-2-imino-4-methyl-6-oxo-hexahydropyrimidin-1-yl]-N-[(3S,4R)-3-hydroxy-3-methyl-chroman-4-yl]chromane-6-carboxamide]	3.8 nM
CCC1(CC)CC(=O)N([C@H]2c3cc(C(=O)N[C@@H]4c5cc(C#N)ccc5OC[C@@]4(C)O)ccc3OC[C@H]2COC)C(=N)N1 [Example 301, (3R,4R)-N-[(3S,4R)-6-cyano-3-hydroxy-3-methyl-chroman-4-yl]-4-(4,4-diethyl-2-imino-6-oxo-hexahydropyrimidin-1-yl)-3-(methoxymethyl)chromane-6-carboxamide]	1.8 nM
CCC1(CC)CC(=O)N(C2CC(C(=O)N(C)C)Oc3ccc(C(=O)N[C@H]4CC(C)(C)Oc5ccccc54)cc32)C(=N)N1 (stereo partly drawn) [Example 302, 4-(4,4-diethyl-2-imino-6-oxo-hexahydropyrimidin-1-yl)-N6-[(4S)-2,2-dimethylchroman-4-yl]-N2,N2-dimethyl-chromane-2,6-dicarboxamide]	1.7 nM
CCC1(CC)CC(=O)N(C2CC(C(=O)N(C)C)Oc3ccc(C(=O)N[C@@H]4c5ccccc5OC[C@@]4(C)O)cc32)C(=N)N1 (stereo partly drawn) [Example 303, 4-(4,4-diethyl-2-imino-6-oxo-hexahydropyrimidin-1-yl)-N6-[(3S,4R)-3-hydroxy-3-methyl-chroman-4-yl]-N2,N2-dimethyl-chromane-2,6-dicarboxamide]	50.8 nM
CCC1(CC)CC(=O)N([C@H]2c3cc(C(=O)N[C@H]4CC(C)(C)Oc5ccccc54)ccc3OC2(COC)COC)C(=N)N1 [Example 304, (3S)-3-(4,4-diethyl-2-imino-6-oxo-hexahydropyrimidin-1-yl)-N-[(4S)-2,2-dimethylchroman-4-yl]-2,2-bis(methoxymethyl)-3H-benzofuran-5-carboxamide]	5.6 nM
CCC1(CC)CC(=O)N(C2c3cc(C(=O)N[C@@H]4c5ccccc5OC[C@@]4(C)O)ccc3OC2(COC)COC)C(=N)N1 (stereo partly drawn) [Example 305, 3-(4,4-diethyl-2-imino-6-oxo-hexahydropyrimidin-l-yl)-N-[(3S,4R)-3-hydroxy-3-methyl-chroman-4-yl]-2,2-bis(methoxymethyl)-3H-benzofuran-5-carboxamide]	75.8 nM
